Data on 7 compounds can be found in ChEMBL document CHEMBL4373723 (J Med Chem, 2019).

Test [1] concerns the target T1, Frizzled-7 (Homo sapiens, UniProt O75084). It is filed as cell-based. As to conditions: cho.
For test [2], the target named is T1, Frizzled-7. The test is described as follows: biochemical. Format: cell-based, CHO. As to conditions: read-out: Kd.
The target of test [3] is T1, Frizzled-7. The settings on record: CHO.
Description: Binding affinity to recombinant human Frizzled-7 (Gln33 to Leu185 residues)/human IgG1 chimeric protein expressed in CHO cells assessed as association rate constant by SPR assay

Bridge positions count the residues as written; N and C are the ends. Square brackets hold non-standard residues; d marks the D form. Peptide text beside a SMILES is read from it. I, II: the chains in the order shown. Phe(4-CF3) = N[C@@H](Cc1ccc(C(F)(F)F)cc1)C(=O)O; Phe(3-Cl) = N[C@@H](Cc1cccc(Cl)c1)C(=O)O; Phe(4-Cl) = N[C@@H](Cc1ccc(Cl)cc1)C(=O)O; Phe(4-Me) = Cc1ccc(C[C@H](N)C(=O)O)cc1

Turning to `CSCC[C@H](NC(=O)[C@@H](NC(=O)[C@H](Cc1cnc[nH]1)NC(=O)[C@H](CSSC[C@H](NC(=O)[C@H](Cc1c[nH]c2ccccc12)NC(=O)[C@H](Cc1ccccc1)NC(=O)[C@H](CCC(=O)O)NC(=O)[C@H](CC(C)C)NC(=O)[C@H](CC(=O)O)NC(=O)[C@H](CC(=O)O)NC(=O)[C@H](CO)NC(C)=O)C(=O)N[C@@H](Cc1cnc[nH]1)C(=O)N[C@H](C(=O)N[C@@H](CCSC)C(=O)N[C@@H](Cc1ccc(C(F)(F)F)cc1)C(N)=O)C(C)C)NC(=O)[C@H](Cc1c[nH]c2ccccc12)NC(=O)[C@H](Cc1ccccc1)NC(=O)[C@H](CCC(=O)O)NC(=O)[C@H](CC(C)C)NC(=O)[C@H](CC(=O)O)NC(=O)[C@H](CC(=O)O)NC(=O)[C@H](CO)NC(C)=O)C(C)C)C(=O)N[C@@H](Cc1ccc(C(F)(F)F)cc1)C(N)=O` (I: Ac-SDDLEFWCHVM[Phe(4-CF3)]-NH2 / II: Ac-SDDLEFWCHVM[Phe(4-CF3)]-NH2; disulfide I:8-II:8), the Kd on Frizzled-7 [1] was 1.9 ×10⁻³ /s; on Frizzled-7 [2] it was 13.1 nM. The same compound showed a Ka at Frizzled-7 [3] of 1.45 ×10⁵ /M/s.
Turning to `CSCC[C@H](NC(=O)[C@@H](NC(=O)[C@H](Cc1cnc[nH]1)NC(=O)[C@H](CSSC[C@H](NC(=O)[C@H](Cc1c[nH]c2ccccc12)NC(=O)[C@H](Cc1ccccc1)NC(=O)[C@H](CCC(=O)O)NC(=O)[C@H](CC(C)C)NC(=O)[C@H](CC(=O)O)NC(=O)[C@H](CC(=O)O)NC(=O)[C@H](CO)NC(C)=O)C(=O)N[C@@H](Cc1cnc[nH]1)C(=O)N[C@H](C(=O)N[C@@H](CCSC)C(=O)N[C@@H](Cc1ccc(Cl)cc1)C(N)=O)C(C)C)NC(=O)[C@H](Cc1c[nH]c2ccccc12)NC(=O)[C@H](Cc1ccccc1)NC(=O)[C@H](CCC(=O)O)NC(=O)[C@H](CC(C)C)NC(=O)[C@H](CC(=O)O)NC(=O)[C@H](CC(=O)O)NC(=O)[C@H](CO)NC(C)=O)C(C)C)C(=O)N[C@@H](Cc1ccc(Cl)cc1)C(N)=O` (I: Ac-SDDLEFWCHVM[Phe(4-Cl)]-NH2 / II: Ac-SDDLEFWCHVM[Phe(4-Cl)]-NH2; disulfide I:8-II:8), the results for the Kd at Frizzled-7 [1] and at Frizzled-7 [2] were 0.82 ×10⁻³ /s and 0.88 nM, respectively. The Ka at Frizzled-7 [3] stood at 9.3 ×10⁵ /M/s.
`CSCC[C@H](NC(=O)[C@@H](NC(=O)[C@H](Cc1cnc[nH]1)NC(=O)[C@H](CSSC[C@H](NC(=O)[C@H](Cc1c[nH]c2ccccc12)NC(=O)[C@H](Cc1ccccc1)NC(=O)[C@H](CCC(=O)O)NC(=O)[C@H](CC(C)C)NC(=O)[C@H](CC(=O)O)NC(=O)[C@H](CC(=O)O)NC(=O)[C@H](CO)NC(C)=O)C(=O)N[C@@H](Cc1cnc[nH]1)C(=O)N[C@H](C(=O)N[C@@H](CCSC)C(=O)N[C@@H](Cc1ccc(C)cc1)C(N)=O)C(C)C)NC(=O)[C@H](Cc1c[nH]c2ccccc12)NC(=O)[C@H](Cc1ccccc1)NC(=O)[C@H](CCC(=O)O)NC(=O)[C@H](CC(C)C)NC(=O)[C@H](CC(=O)O)NC(=O)[C@H](CC(=O)O)NC(=O)[C@H](CO)NC(C)=O)C(C)C)C(=O)N[C@@H](Cc1ccc(C)cc1)C(N)=O` (I: Ac-SDDLEFWCHVM[Phe(4-Me)]-NH2 / II: Ac-SDDLEFWCHVM[Phe(4-Me)]-NH2; disulfide I:8-II:8): the Kd at Frizzled-7 [1] was 0.98 ×10⁻³ /s; at Frizzled-7 [2] it was 0.97 nM. The compound further returned a Ka at Frizzled-7 [3] of 10.2 ×10⁵ /M/s.
For the compound `CSCC[C@H](NC(=O)[C@@H](NC(=O)[C@H](Cc1cnc[nH]1)NC(=O)[C@H](CSSC[C@H](NC(=O)[C@H](Cc1c[nH]c2ccccc12)NC(=O)[C@H](CC(C)C)NC(=O)[C@H](CCC(=O)O)NC(=O)[C@H](CC(C)C)NC(=O)[C@H](CC(=O)O)NC(=O)[C@H](CC(=O)O)NC(=O)[C@H](CO)NC(C)=O)C(=O)N[C@@H](Cc1cnc[nH]1)C(=O)N[C@H](C(=O)N[C@@H](CCSC)C(=O)N[C@@H](Cc1ccc(O)cc1)C(N)=O)C(C)C)NC(=O)[C@H](Cc1c[nH]c2ccccc12)NC(=O)[C@H](CC(C)C)NC(=O)[C@H](CCC(=O)O)NC(=O)[C@H](CC(C)C)NC(=O)[C@H](CC(=O)O)NC(=O)[C@H](CC(=O)O)NC(=O)[C@H](CO)NC(C)=O)C(C)C)C(=O)N[C@@H](Cc1ccc(O)cc1)C(N)=O` (I: Ac-SDDLELWCHVMY-NH2 / II: Ac-SDDLELWCHVMY-NH2; disulfide I:8-II:8), the Kd on Frizzled-7 [1] was found to be 0.6 ×10⁻³ /s; at Frizzled-7 [2] it was 0.079 nM. This compound also had a Ka on Frizzled-7 [3] of 76.5 ×10⁵ /M/s.
The like results for `CC[C@H](C)[C@H](NC(=O)[C@H](Cc1cnc[nH]1)NC(=O)[C@H](CSSC[C@H](NC(=O)[C@H](Cc1c[nH]c2ccccc12)NC(=O)[C@H](Cc1cccc(Cl)c1)NC(=O)[C@H](CCC(=O)O)NC(=O)[C@H](CC(C)C)NC(=O)[C@H](CC(=O)O)NC(=O)[C@H](CC(=O)O)NC(=O)[C@H](CO)NC(C)=O)C(=O)N[C@@H](Cc1cnc[nH]1)C(=O)N[C@H](C(=O)N[C@@H](CCSC)C(=O)N[C@@H](Cc1ccc(O)cc1)C(N)=O)[C@@H](C)CC)NC(=O)[C@H](Cc1c[nH]c2ccccc12)NC(=O)[C@H](Cc1cccc(Cl)c1)NC(=O)[C@H](CCC(=O)O)NC(=O)[C@H](CC(C)C)NC(=O)[C@H](CC(=O)O)NC(=O)[C@H](CC(=O)O)NC(=O)[C@H](CO)NC(C)=O)C(=O)N[C@@H](CCSC)C(=O)N[C@@H](Cc1ccc(O)cc1)C(N)=O` (I: Ac-SDDLE[Phe(3-Cl)]WCHIMY-NH2 / II: Ac-SDDLE[Phe(3-Cl)]WCHIMY-NH2; disulfide I:8-II:8) were, in that order, 0.57 ×10⁻³ /s, 0.083 nM and 68.4 ×10⁵ /M/s.
Regarding `CSCC[C@H](NC(=O)[C@@H](NC(=O)[C@H](Cc1cnc[nH]1)NC(=O)[C@H](CSSC[C@H](NC(=O)[C@H](Cc1c[nH]c2ccccc12)NC(=O)[C@H](Cc1cccc(Cl)c1)NC(=O)[C@H](CCC(=O)O)NC(=O)[C@H](CC(C)C)NC(=O)[C@H](CC(=O)O)NC(=O)[C@H](CC(=O)O)NC(=O)[C@H](CO)NC(C)=O)C(=O)N[C@@H](Cc1cnc[nH]1)C(=O)N[C@H](C(=O)N[C@@H](CCSC)C(=O)N[C@@H](Cc1ccc(O)cc1)C(N)=O)C(C)C)NC(=O)[C@H](Cc1c[nH]c2ccccc12)NC(=O)[C@H](Cc1cccc(Cl)c1)NC(=O)[C@H](CCC(=O)O)NC(=O)[C@H](CC(C)C)NC(=O)[C@H](CC(=O)O)NC(=O)[C@H](CC(=O)O)NC(=O)[C@H](CO)NC(C)=O)C(C)C)C(=O)N[C@@H](Cc1ccc(O)cc1)C(N)=O` (I: Ac-SDDLE[Phe(3-Cl)]WCHVMY-NH2 / II: Ac-SDDLE[Phe(3-Cl)]WCHVMY-NH2; disulfide I:8-II:8), the Kd on Frizzled-7 [1] is 0.63 ×10⁻³ /s; at Frizzled-7 [2], 0.1 nM. This compound also returned a Ka on Frizzled-7 [3] of 66.3 ×10⁵ /M/s.
The like results for `CSCC[C@H](NC(=O)[C@@H](NC(=O)[C@H](Cc1cnc[nH]1)NC(=O)[C@H](CSSC[C@H](NC(=O)[C@H](Cc1c[nH]c2ccccc12)NC(=O)[C@H](Cc1ccc(Cl)cc1)NC(=O)[C@H](CCC(=O)O)NC(=O)[C@H](CC(C)C)NC(=O)[C@H](CC(=O)O)NC(=O)[C@H](CC(=O)O)NC(=O)[C@H](CO)NC(C)=O)C(=O)N[C@@H](Cc1cnc[nH]1)C(=O)N[C@H](C(=O)N[C@@H](CCSC)C(=O)N[C@@H](Cc1ccc(O)cc1)C(N)=O)C(C)C)NC(=O)[C@H](Cc1c[nH]c2ccccc12)NC(=O)[C@H](Cc1ccc(Cl)cc1)NC(=O)[C@H](CCC(=O)O)NC(=O)[C@H](CC(C)C)NC(=O)[C@H](CC(=O)O)NC(=O)[C@H](CC(=O)O)NC(=O)[C@H](CO)NC(C)=O)C(C)C)C(=O)N[C@@H](Cc1ccc(O)cc1)C(N)=O` (I: Ac-SDDLE[Phe(4-Cl)]WCHVMY-NH2 / II: Ac-SDDLE[Phe(4-Cl)]WCHVMY-NH2; disulfide I:8-II:8) were, in that order, 1.71 ×10⁻³ /s, 1.04 nM and 16.5 ×10⁵ /M/s.
